Measurements as given in BindingDB's records for doi:10.1021/acs.jmedchem.5b00261 (Genentech, 2015).
pEC50: −log10 of the molar value.

Test: Inhibition of LRRK2 G2019S mutant-induced neuronal toxicity in human cortical neurons

In the case of `COc1cc(N2CCOCC2)ccc1Nc1ncc(F)c(Nc2ccccc2NS(C)(=O)=O)n1`, the pEC50 was 8.40.
